From patent US9586985B2, “Organic compounds as proantigens for natural killer T cells” (Callaghan Innovation Research Limited, priority 2012, dated 2017)

How the values were obtained:
B16.OVA melanoma cells = experiment: Anti-tumour activity against subcutaneous B16.OVA tumours, given with OVA protein; format: in vivo, C57BL/6 mice; details: i.v. with 200 μg OVA protein seven days after tumour challenge
Protocol: Progression of subcutaneous B16.OVA tumours is monitored in animals that are treated seven days after tumour challenge with intravenous OVA protein together with the indicated compounds, or treated with PBS. The mean tumour sizes per group (n=5)±SEM are shown.
Progression of subcutaneous B16.OVA tumours is monitored in animals that are treated seven days after tumour challenge with intravenous OVA protein together with the indicated compounds, or treated with PBS. The mean tumour sizes per group (n=5)±SEM are shown. […] (Compound CN158A=CN158 in water.)
Groups of C57BL/6 mice (n=5) receive a subcutaneous injection into the flank of 1×10^5 B16.OVA melanoma cells, which express a cDNA encoding the chicken ovalbumin (OVA) sequence. The different groups are treated 7 days later, when tumours are fully engrafted, by intravenous injection of one of the following; 200 μg OVA protein together with 200 ng α-GalCer, 200 μg OVA protein together with 200 ng of a compound of the invention, or PBS. Mice are monitored for tumour growth every 3-4 days, and tumour size for each group is calculated as the mean of the products of bisecting diameters (±SEM). Measurements are terminated for each group when the first animal develops a tumour exceeding 200 mm^2.

[1] = tested on: cytokines IL-12p70, IL-4 and IFN-g; experiment: Cytokine release into serum after injection (cytokine bead array); format: in vivo, C57BL/6 mice
Protocol: (§1) Groups of C57BL/6 mice (n=3 per group) are injected intravenously with 200 ng of the indicated compounds, and then the serum is collected at the indicated times for analysis of cytokine levels by cytokine bead array technology.
as §1, with “ng of α-GalCer or an equivalent molar amount” for “ng”, “technology. (Compound CN158A1b=CN158 formulated in accordance with Example 15; Compound CN158A=CN158 in water.)” for “technology.”
Blood is collected from the lateral tail vein at different time intervals after glycolipid administration. Serum is collected after blood has clotted, and levels of cytokines IL-12p70, IL-4 and IFN-g are assessed by cytokine bead array technology (Bioplex, Biorad), according to the manufacturer's instructions.

human NKT cells = experiment: Proliferation of human NKT cells in PBMC culture; format: cell-based; details: 7 days culture with IL-2, one donor, FIG. 6
Protocol: PBMC from one donor are cultured for 7 days with different doses of the indicated compounds in the presence of IL-2, and then the percentages of NKT cells in the final cultures determined by flow cytometry with fluorescent α-GalCer-loaded CD1d tetramers and anti-CD3. Data are expressed as percentage of NKT cells (α-GalCer/CD1d tetramer and anti-CD3-binding cells) of total T cells (all anti-CD3-binding cells).
Peripheral blood is drawn into heparinized tubes, diluted 1:1 in PBS, and layered over a sodium diatrizoate and polysaccharide solution (Lymphoprep; Axis-Shield, Oslo, Norway) before centrifugation at 800×g for 25 minutes at room temperature to collect the peripheral blood mononuclear cell (PBMC) fraction, which contains NKT cells. To assess proliferation of NKT cells, PBMC (2×10^5 per well) are cultured at 37° C. in Iscove's Modified Dulbecco's Medium with 5% human AB serum and the indicated concentrations of α-GalCer, or the compounds of the invention, with recombinant human IL-2 50 U/mL (Chiron Corporation, Emeryville, Calif.) added after 24 hours. After 7 days of culture, the cells are analysed by flow cytometry, using fluorescent soluble CD1d tetramers that have been loaded with α-GalCer to identify the NKT cells. […]

[2] = HPLC-ESI-MSMS quantification of α-GalCer in test samples; format: physicochemical; details: freshly reconstituted formulated sample; estimated maximum level
Protocol: Quantification of the amount of α-GalCer in various test samples of compounds of the invention is made by HPLC-ESI-MSMS analysis using a Waters 2795 HPLC and a Waters Q-TOF Premier™ Tandem Mass Spectrometer. The chromatography used a Phenomenex Kinetex C18 […] 3.0×50 mm column eluting with isocratic methanol containing 10 mM ammonium formate+0.5% formic acid at a flow rate of 0.2 mL/min. α-GalCer is monitored by selective reactant monitoring of 858.7 to 696.7 Da. The estimate of amount of α-GalCer is made by comparison of ion count integrals to a standard curve run on the same day or by comparison to test samples spiked with a known amount of α-GalCer.
The level of α-GalCer is determined on freshly reconstituted formulated samples unless otherwise stated. The estimated maximum level of α-GalCer for key compounds is given below.

Max α-GalCer (ppm) [2]: 40 ppm | Max α-GalCer/injection [2]: 0.008 ng
SMILES: CCCCCCCCCCCCCCCCCCCCCCCCCC(=O)O[C@H](CCCCCCCCCCCCCC)[C@@H](O)[C@H](CO[C@H]1O[C@H](CO)[C@H](O)[C@H](O)[C@H]1O)NC(=O)OCOC(=O)C(C)(C)C [CN145, (2S,3S,4R)-1-O-α-D-Galactopyranosyl-4-O-hexacosanoyl-2-(pivaloyloxymethoxycarbonylamino) octadecane-1,3,4-triol]
anti-tumour activity: growth of established B16.OVA tumours (B16.OVA melanoma cells): equally beneficial in promoting immune responses that suppress growth of established tumours | cytokine profile in vivo compared to α-GalCer ([1]; 200 ng i.v. or molar equivalent, FIGS. 3 and 8): different cytokine profiles | course of IL-12p70 level in serum ([1]; 200 ng i.v., FIG. 3): still increasing through 6 to 12 h | ratio of IFN-γ to IL-4 in serum compared to α-GalCer ([1]; 200 ng i.v., FIG. 3): higher ratio of IFN-γ to IL-4 than that of α-GalCer | overall levels of systemic cytokine production ([1]; 200 ng α-GalCer or equivalent i.v., FIGS. 3 and 8): not as potent as α-GalCer in terms of overall levels of cytokine production | expansion of human NKT cells from PBMC (human NKT cells): able to induce the expansion of human NKT cells
